From the NIST ThermoML archive (doi:10.1016/j.jct.2005.06.015)

Key:
[1] = refractive index (Na D-line) (dimensionless); settings: 101.33 kPa, Liquid, Standard Abbe refractometry
[2] = 101 kPa, Liquid
[3] = refractive index (Na D-line) (dimensionless); xn = mol fraction of the nth substance listed; settings: 101 kPa, Liquid, Standard Abbe refractometry
[4] = xn = mol fraction of the nth substance listed; settings: 101 kPa, Liquid

CCCCCCCO [heptan-1-ol]
Settings | mass density, [2] [kg/m3] | refractive index, [1]
293.15 K | 822.14 | 1.42397
303.15 K | 815.41 | 1.42047

CCCCCCCO [heptan-1-ol] + ClC(Cl)C(Cl)Cl
x2 = 0
Settings | mass density, [4] [kg/m3] | refractive index, [3]
293.15 K | 822.14 | 1.42397
303.15 K | 815.41 | 1.42047

CCCCCCCCO [octan-1-ol] + ClC(Cl)C(Cl)Cl
x2 = 0
Settings | mass density, [4] [kg/m3] | refractive index, [3]
293.15 K | 825 | 1.42941
303.15 K | 818.09 | 1.42563

CCCCCCO [hexan-1-ol]
Settings | mass density, [2] [kg/m3] | refractive index, [1]
293.15 K | 818.72 | 1.41807
303.15 K | 811.73 | 1.41423

ClC(Cl)C(Cl)Cl [1,1,2,2-tetrachloroethane]
Settings | mass density, [2] [kg/m3] | refractive index, [1]
293.15 K | 1594.27 | 1.49387
303.15 K | 1574.85 | 1.48887

CCCCCO [pentan-1-ol]
Settings | mass density, [2] [kg/m3] | refractive index, [1]
293.15 K | 814.72 | 1.40976
303.15 K | 807.6 | 1.40592

ClC(Cl)C(Cl)Cl [1,1,2,2-tetrachloroethane] + CCCCCCO
Settings | mass density, [4] [kg/m3] | refractive index, [3]
293.15 K, x1 = 0.1003 | 886.07 | 1.4247
293.15 K, x1 = 0.2011 | 955.51 | 1.43135
293.15 K, x1 = 0.3006 | 1025.9 | 1.438
293.15 K, x1 = 0.4004 | 1098.46 | 1.44486
293.15 K, x1 = 0.5 | 1173.27 | 1.45201
293.15 K, x1 = 0.6009 | 1251.57 | 1.45957
293.15 K, x1 = 0.7002 | 1331.64 | 1.46735
293.15 K, x1 = 0.8004 | 1415.64 | 1.47556
293.15 K, x1 = 0.9011 | 1503.8 | 1.48444
293.15 K, x1 = 1 | 1594.27 | 1.49387
303.15 K, x1 = 0.1003 | 877.89 | 1.42076
303.15 K, x1 = 0.2011 | 946.24 | 1.42723
303.15 K, x1 = 0.3006 | 1015.59 | 1.43378
303.15 K, x1 = 0.4004 | 1087.1 | 1.4405
303.15 K, x1 = 0.5 | 1160.79 | 1.4475
303.15 K, x1 = 0.6009 | 1237.85 | 1.45495
303.15 K, x1 = 0.7002 | 1316.58 | 1.46264
303.15 K, x1 = 0.8004 | 1399.12 | 1.47082
303.15 K, x1 = 0.9011 | 1485.78 | 1.4796
303.15 K, x1 = 1 | 1574.85 | 1.48887

CCCCCCCCCCO [decan-1-ol]
Settings | mass density, [2] [kg/m3] | refractive index, [1]
293.15 K | 829.84 | 1.43694
303.15 K | 822.83 | 1.43364

ClC(Cl)C(Cl)Cl [1,1,2,2-tetrachloroethane] + CCCCCCCO
Settings | mass density, [4] [kg/m3] | refractive index, [3]
293.15 K, x1 = 0.1022 | 883.03 | 1.42952
293.15 K, x1 = 0.1995 | 943.76 | 1.43494
293.15 K, x1 = 0.3002 | 1009.72 | 1.4406
293.15 K, x1 = 0.4008 | 1079.02 | 1.44661
293.15 K, x1 = 0.5001 | 1151.23 | 1.45297
293.15 K, x1 = 0.599 | 1227.43 | 1.45976
293.15 K, x1 = 0.6996 | 1310.04 | 1.46717
293.15 K, x1 = 0.7999 | 1398.24 | 1.47525
293.15 K, x1 = 0.9015 | 1494.17 | 1.48421
293.15 K, x1 = 1 | 1594.27 | 1.49387
303.15 K, x1 = 0.1022 | 875.27 | 1.42581
303.15 K, x1 = 0.1995 | 934.97 | 1.43106
303.15 K, x1 = 0.3002 | 999.87 | 1.43653
303.15 K, x1 = 0.4008 | 1068.12 | 1.44244
303.15 K, x1 = 0.5001 | 1139.25 | 1.44861
303.15 K, x1 = 0.599 | 1214.28 | 1.45521
303.15 K, x1 = 0.6996 | 1295.52 | 1.46254
303.15 K, x1 = 0.7999 | 1382.11 | 1.4705
303.15 K, x1 = 0.9015 | 1476.3 | 1.47937
303.15 K, x1 = 1 | 1574.85 | 1.48887

CCCCCCO [hexan-1-ol] + ClC(Cl)C(Cl)Cl
x2 = 0
Settings | mass density, [4] [kg/m3] | refractive index, [3]
293.15 K | 818.72 | 1.41807
303.15 K | 811.73 | 1.41423

ClC(Cl)C(Cl)Cl [1,1,2,2-tetrachloroethane] + CCCCCCCCO
Settings | mass density, [4] [kg/m3] | refractive index, [3]
293.15 K, x1 = 0.1028 | 879.91 | 1.43403
293.15 K, x1 = 0.1967 | 933.27 | 1.43826
293.15 K, x1 = 0.2997 | 995.8 | 1.44321
293.15 K, x1 = 0.4005 | 1061.47 | 1.44845
293.15 K, x1 = 0.501 | 1132.1 | 1.45416
293.15 K, x1 = 0.6 | 1207.5 | 1.46034
293.15 K, x1 = 0.6999 | 1290.57 | 1.46723
293.15 K, x1 = 0.7998 | 1381.66 | 1.47492
293.15 K, x1 = 0.9007 | 1483.42 | 1.48379
293.15 K, x1 = 1 | 1594.27 | 1.49387
303.15 K, x1 = 0.1028 | 872.01 | 1.43011
303.15 K, x1 = 0.1967 | 924.42 | 1.43419
303.15 K, x1 = 0.2997 | 985.92 | 1.43892
303.15 K, x1 = 0.4005 | 1050.64 | 1.44404
303.15 K, x1 = 0.501 | 1120.29 | 1.44968
303.15 K, x1 = 0.6 | 1194.6 | 1.45579
303.15 K, x1 = 0.6999 | 1276.31 | 1.46262
303.15 K, x1 = 0.7998 | 1365.71 | 1.47026
303.15 K, x1 = 0.9007 | 1465.56 | 1.47898
303.15 K, x1 = 1 | 1574.85 | 1.48887

CCCCCCCCO [octan-1-ol]
Settings | mass density, [2] [kg/m3] | refractive index, [1]
293.15 K | 825 | 1.42941
303.15 K | 818.09 | 1.42563

ClC(Cl)C(Cl)Cl [1,1,2,2-tetrachloroethane] + CCCCCO
Settings | mass density, [4] [kg/m3] | refractive index, [3]
293.15 K, x1 = 0.1015 | 892.95 | 1.41801
293.15 K, x1 = 0.2006 | 969.17 | 1.42587
293.15 K, x1 = 0.3019 | 1046.97 | 1.43392
293.15 K, x1 = 0.4001 | 1122.53 | 1.44184
293.15 K, x1 = 0.5005 | 1199.96 | 1.45
293.15 K, x1 = 0.5995 | 1276.74 | 1.45825
293.15 K, x1 = 0.7005 | 1355.55 | 1.46691
293.15 K, x1 = 0.8008 | 1434.56 | 1.4757
293.15 K, x1 = 0.9001 | 1513.69 | 1.48463
293.15 K, x1 = 1 | 1594.27 | 1.49387
303.15 K, x1 = 0.1015 | 884.5 | 1.41395
303.15 K, x1 = 0.2006 | 959.53 | 1.42166
303.15 K, x1 = 0.3019 | 1036.17 | 1.42959
303.15 K, x1 = 0.4001 | 1110.64 | 1.43735
303.15 K, x1 = 0.5005 | 1186.94 | 1.44547
303.15 K, x1 = 0.5995 | 1262.57 | 1.45363
303.15 K, x1 = 0.7005 | 1340.1 | 1.46218
303.15 K, x1 = 0.8008 | 1417.76 | 1.47093
303.15 K, x1 = 0.9001 | 1495.54 | 1.47979
303.15 K, x1 = 1 | 1574.85 | 1.48887

ClC(Cl)C(Cl)Cl [1,1,2,2-tetrachloroethane] + CCCCCCCCCCO
Settings | mass density, [4] [kg/m3] | refractive index, [3]
293.15 K, x1 = 0.1023 | 874.88 | 1.44019
293.15 K, x1 = 0.2004 | 922 | 1.44342
293.15 K, x1 = 0.3006 | 974.95 | 1.44704
293.15 K, x1 = 0.4005 | 1033.5 | 1.45108
293.15 K, x1 = 0.5009 | 1099.29 | 1.45575
293.15 K, x1 = 0.6001 | 1172.37 | 1.46097
293.15 K, x1 = 0.6999 | 1255.81 | 1.46711
293.15 K, x1 = 0.8 | 1351.62 | 1.47434
293.15 K, x1 = 0.901 | 1464.04 | 1.48303
293.15 K, x1 = 1 | 1594.27 | 1.49387
303.15 K, x1 = 0.1023 | 867.03 | 1.43656
303.15 K, x1 = 0.2004 | 913.42 | 1.43969
303.15 K, x1 = 0.3006 | 965.57 | 1.44313
303.15 K, x1 = 0.4005 | 1023.2 | 1.44706
303.15 K, x1 = 0.5009 | 1087.89 | 1.45152
303.15 K, x1 = 0.6001 | 1159.72 | 1.45665
303.15 K, x1 = 0.6999 | 1241.75 | 1.46263
303.15 K, x1 = 0.8 | 1336.02 | 1.46974
303.15 K, x1 = 0.901 | 1446.7 | 1.47826
303.15 K, x1 = 1 | 1574.85 | 1.48887

CCCCCO [pentan-1-ol] + ClC(Cl)C(Cl)Cl
x2 = 0
Settings | mass density, [4] [kg/m3] | refractive index, [3]
293.15 K | 814.72 | 1.40976
303.15 K | 807.6 | 1.40592

CCCCCCCCCCO [decan-1-ol] + ClC(Cl)C(Cl)Cl
x2 = 0
Settings | mass density, [4] [kg/m3] | refractive index, [3]
293.15 K | 829.84 | 1.43694
303.15 K | 822.83 | 1.43364
